Among the data in publication PMC8815882, “Screening the pandemic response box identified benzimidazole carbamates, Olorofim and ravuconazole as promising drug candidates for the treatment of eumycetoma” (PLoS Neglected Tropical Diseases, 2022) are activity and Percent fungal survival values, retold here.

Where two headings read alike, the source gives them in different places.

The assay deals with M. mycetomatis genome strain MM55. The experiment in a line: CLSI M38-A2 based in vitro susceptibility screening (XTT or resazurin), growth at fixed concentration. Type of assay: cell-based, Madurella mycetomatis. To be noted: Madurella mycetomatis; for Percent fungal survival at 100 µM: read-out: Percentage survival at 100um, 100 uM A (second replicate column).
The mark [1] stands for this setting: mean of replicates, MM55, read-out: Percentage survival at 25um, 25 uM mean.
The mark [2] stands for this setting: replicate A, MM55, read-out: Percentage survival at 25um, 25 um A.
The mark [3] stands for this setting: replicate B, MM55, read-out: Percentage survival at 25um, 25 uM B.
Setting [4] is: replicate C, MM55, read-out: Percentage survival at 25um, 25 uM C.
The mark [5] stands for this setting: mean of replicates, MM55, read-out: Percentage survival at 100um, 100 uM mean.
Setting [6] is: replicate 1, MM55, read-out: Percentage survival at 100um, 100 uM A.
The mark [7] stands for this setting: replicate 2, MM55, read-out: Percentage survival at 100um, 100 uM A.
[8] abbreviates: replicate 3, MM55, read-out: Percentage survival at 100um, 100 uM A.
Setting [9] is: mean, read-out: Percentage survival at 25um, 25 uM mean.
[10] abbreviates: replicate A, read-out: Percentage survival at 25um, 25 um A.
Where [11] appears, read: replicate B, read-out: Percentage survival at 25um, 25 uM B.
Where [12] appears, read: replicate C, read-out: Percentage survival at 25um, 25 uM C.
Setting [13] is: mean, read-out: Percentage survival at 100um, 100 uM mean.
[14] abbreviates: replicate (first column), read-out: Percentage survival at 100um, 100 uM A.
[15] abbreviates: replicate (second column), read-out: Percentage survival at 100um, 100 uM A.
The mark [16] stands for this setting: replicate (third column), read-out: Percentage survival at 100um, 100 uM A.
The mark [17] stands for this setting: mean of three, M. mycetomatis MM55, read-out: Percentage survival at 25um, 25 uM mean.
The mark [18] stands for this setting: replicate A, M. mycetomatis MM55, read-out: Percentage survival at 25um, 25 um A.
Setting [19] is: replicate B, M. mycetomatis MM55, read-out: Percentage survival at 25um, 25 uM B.
The mark [20] stands for this setting: replicate C, M. mycetomatis MM55, read-out: Percentage survival at 25um, 25 uM C.
Setting [21] is: mean of three, M. mycetomatis MM55, read-out: Percentage survival at 100um, 100 uM mean.
Setting [22] is: replicate 1, M. mycetomatis MM55, read-out: Percentage survival at 100um, 100 uM A (first replicate column).
Where [23] appears, read: replicate 2, M. mycetomatis MM55.
Setting [24] is: replicate 3, M. mycetomatis MM55, read-out: Percentage survival at 100um, 100 uM A (third replicate column).
[25] abbreviates: mean of replicates, read-out: Percentage survival at 25um, 25 uM mean.
Setting [26] is: mean of replicates, read-out: Percentage survival at 100um, 100 uM mean.
[27] abbreviates: replicate 1, read-out: Percentage survival at 100um, 100 uM A.
[28] abbreviates: replicate 2, read-out: Percentage survival at 100um, 100 uM A.
The mark [29] stands for this setting: replicate 3, read-out: Percentage survival at 100um, 100 uM A.
Where [30] appears, read: mean of three replicates, read-out: Percentage survival at 25um, 25 uM mean.
The mark [31] stands for this setting: mean of three replicates, read-out: Percentage survival at 100um, 100 uM mean.

`C=CCN(C(=O)OCc1ccc([N+](=O)[O-])cc1)C1CCN(CC[C@](C)(CN(C)S(=O)(=O)c2ccccc2)c2ccccc2)CC1` [MMV1782214]: the activity at 25 µM worked out at 69.4% under setting [1], 79.7% under setting [2], 66.7% under setting [3] and 61.9% under setting [4]. The activity at 100 µM is, setting by setting: under setting [5], 62.1%; under setting [6], 55.9%; under setting [7], 76.9%; under setting [8], 53.4%.
With `CNc1nc(=O)[nH]cc1F` [MMV1782388], the activity at 25 µM is, setting by setting: under setting [9], 81.1%; under setting [10], 88.9%; under setting [11], 76.2%; under setting [12], 78.1%. Also, the activity at 100 µM under setting [13] was 93.4%, the activity at 100 µM under setting [14] worked out at 99.3%, the activity at 100 µM under setting [15] came out at 85.3% and the activity at 100 µM under setting [16] was 95.6%.
In the case of `OCCCCn1cnc2c(O)nc(NCc3ccc(Cl)c(Cl)c3)nc21` [MMV1593542], the activity at 25 µM was determined as 73.1% under setting [17], 73.4% under setting [18], 73.3% under setting [19] and 72.6% under setting [20]. The activity at 100 µM is, setting by setting: under setting [21], 74.4%; under setting [22], 82.6%; under setting [24], 70.1%. Moreover, the Percent fungal survival at 100 µM under setting [23] turned out to be 70.6%.
With `COc1c(NC(=O)[C@H]2CC[C@@H](COc3ccc([N+](=O)[O-])cc3)CC2)c(F)cc2c(=O)c(C(=O)O)cn(C3CC3)c12` [MMV1633965], the activity at 25 µM under setting [25] is 83.5%, the activity at 25 µM under setting [10] came to 86.3%, the activity at 25 µM under setting [11] came out at 88.2% and the activity at 25 µM under setting [12] came to 76%. Further, the activity at 100 µM turned out to be 82.8% under setting [26], 86.1% under setting [27], 78.7% under setting [28] and 83.4% under setting [29].
On to `C[C@@H](NC(=O)c1ccccc1-c1ccccc1)B(O)O` [MMV1582493], for which the activity at 25 µM by setting is: under setting [9], 84.3%; under setting [10], 92.1%; under setting [11], 87.2%; under setting [12], 73.6%. Moreover, the activity at 100 µM under setting [13] was 83.3%, the activity at 100 µM under setting [14] is 92.5%, the activity at 100 µM under setting [15] came out at 73.6% and the activity at 100 µM under setting [16] is 83.9%.
For `Cc1nc(-c2ccc(C3N(C)c4ccc(F)cc4C(=O)N3c3ccccc3)s2)cs1` (centres unmarked) [MMV1582492], the activity at 25 µM worked out at 71% under setting [17], 80% under setting [18], 73.5% under setting [19] and 59.4% under setting [20]. In addition, the activity at 100 µM reads like this: under setting [21], 79.4%; under setting [22], 66.4%; under setting [24], 70.8%. Moreover, the Percent fungal survival at 100 µM under setting [23] is 101%.
As for `C[C@@H]1O[C@@H]1P(=O)(O)O` [MMV002354], the activity at 25 µM stood at 88.5% under setting [25], 88.5% under setting [10], 86.5% under setting [11] and 90.5% under setting [12]. For the same molecule, the activity at 100 µM came to 88.2% under setting [26], 81.5% under setting [27], 93.4% under setting [28] and 89.6% under setting [29].
`O=C(Nc1cccc(C2=NCCN2)c1)c1ccc(-c2ccc(C(=O)Nc3cccc(C4=NCCN4)c3)cc2)cc1` [MMV1580853]: the activity at 25 µM worked out at 84.5% under setting [9], 92.1% under setting [10], 94.2% under setting [11] and 67.1% under setting [12]. Besides, the activity at 100 µM runs as follows: under setting [13], 55.8%; under setting [14], 6.17%; under setting [15], 92%; under setting [16], 69.2%.
`CC(C)(C)OC(=O)NCc1ccc(C(=O)N[C@H]2CCOC2=O)cc1` [MMV1581547]: the activity at 25 µM runs as follows: under setting [17], 87.5%; under setting [18], 95.2%; under setting [19], 90.1%; under setting [20], 77.3%. Also, the activity at 100 µM amounted to 113% under setting [21], 94.9% under setting [22] and 89.2% under setting [24]. In addition, under setting [23], the Percent fungal survival at 100 µM turned out to be 156%.
For the molecule `Cc1[nH]c2ccccc2c1CCNCc1ccc(/C=C/C(=O)NO)cc1` [MMV010036], the activity at 25 µM reads like this: under setting [30], 90.9%; under setting [10], 98.2%; under setting [11], 95.9%; under setting [12], 78.7%. Further, the activity at 100 µM was 85.9% (first replicate column, read-out: Percentage survival at 100um, 100 uM A); 77.1% under setting [31]; 69.6% (second replicate column, read-out: Percentage survival at 100um, 100 uM A); 75.6% (third replicate column, read-out: Percentage survival at 100um, 100 uM A).
Turning to `CN(O)C(=O)c1cc2c(CN3CCC[C@H]3C(N)=O)cn(Cc3ccc(F)cc3)c2cn1` [MMV1782386], the activity at 25 µM runs as follows: under setting [1], 91.7%; under setting [2], 95%; under setting [3], 96.1%; under setting [4], 84%. Moreover, the activity at 100 µM is, setting by setting: under setting [5], 86%; under setting [6], 87.4%; under setting [7], 91.4%; under setting [8], 79.3%.
Take `O=c1cc(NCCCN[C@@H]2CCOc3c(Br)cc(Br)cc32)[nH]c2ccsc12` [MMV1578884]: the activity at 25 µM runs as follows: under setting [25], 96.9%; under setting [10], 100%; under setting [11], 95.5%; under setting [12], 94.6%. Moreover, the activity at 100 µM is, setting by setting: under setting [26], 88.3%; under setting [27], 93%; under setting [28], 86.8%; under setting [29], 85.3%.
`C[C@@H](NC(=O)c1cccc(-c2c[nH]c(-c3cc4ccccc4cn3)n2)c1)c1ccc(F)cc1` [MMV1782211]: the activity at 25 µM by setting is: under setting [1], 77%; under setting [2], 80.9%; under setting [3], 86%; under setting [4], 64.2%. For the same molecule, the activity at 100 µM by setting is: under setting [5], 70%; under setting [6], 78.5%; under setting [7], 73.3%; under setting [8], 58.3%.
For the molecule `O=c1ccc2ncc(=O)n3c2n1CC3CN1CCC(NCc2cc3c(cn2)OCCC3)CC1` (centres unmarked) [MMV1578568], the activity at 25 µM by setting is: under setting [9], 66.7%; under setting [10], 82.6%; under setting [11], 42.3%; under setting [12], 75.2%. In addition, the activity at 100 µM runs as follows: under setting [13], 63.3%; under setting [14], 26.3%; under setting [15], 74.3%; under setting [16], 89.2%.
As to `CN(Cc1ccc(C(C)(C)C)cc1)Cc1cccc2ccccc12` [MMV637104], the activity at 25 µM is, setting by setting: under setting [9], 40.9%; under setting [10], 58.2%; under setting [11], -0.523%; under setting [12], 64.9%. Besides, the activity at 100 µM was 61.2% under setting [13], 61.4% under setting [14], 65.7% under setting [15] and 56.6% under setting [16].
With `O=S(=O)(NCB(O)O)c1ccc(-c2nnn[nH]2)cc1C(F)(F)F` [MMV1782411], the activity at 25 µM came to 83.9% under setting [30], 61.4% under setting [10], 112% under setting [11] and 78.7% under setting [12]. The activity at 100 µM reads like this: under setting [31], 88.5%; (replicate 1, read-out: Percentage survival at 100um, 100 uM A (first replicate column)) 91.5%; (replicate 3, read-out: Percentage survival at 100um, 100 uM A (third replicate column)) 90.2%. In addition, under “replicate 2”, the Percent fungal survival at 100 µM worked out at 83.7%.
